In US20260232666A1, “COMPOSITIONS AND METHODS FOR INHIBITION OF RAS” (TheRas, Inc., priority 2023, published 2026):
pIC50: −log10 of the molar value.

Columns and labels:
[1] = molecular target: T1, GppNHp-loaded KRAS4b (amino acids 1-169) G12C/C118S protein (Homo sapiens, UniProt P01116, C118S/G12C); assay: Covalent cysteine 12 modification by MALDI-TOF MS, GppNHp-loaded KRAS G12C; assay type: binding; settings: 15 minutes reaction time point
T1 construct: KRAS4b (amino acids 1-169) G12C/C118S protein; made in house
Procedure: (§1) Biological Example 1: Covalent Cysteine 12 Modification Analysis Using Matrix Assisted Laser Desorption Ionization-Time of Flight Mass Spectrometry (MALDI-TOF MS)
(§2) MALDI-TOF MS analysis was performed using 1 μM protein (KRAS G12C), and 1:2.5 protein to compound ratio.
(§3) Reaction: 1 μM of GppNHp, GTP, or GDP-loaded KRAS4b (amino acids 1-169) G12C/C118S protein (produced in-house by Protein Expression Laboratory, FNLCR/Leidos Biomed) in 20 mM 4-(2-hydroxyethyl)-1-piperazineethanesulfonic acid (HEPES) buffer containing 150 mM NaCl, 1 mM MgCl2, pH 7.3 was prepared freshly before assay. Twelve-μL aliquots of protein were dispensed onto low volume 384-well plate, then 30 nL of tested compounds from 1 mM DMSO stocks were added to appropriate wells using ECHO 555 acoustic liquid handler (Labcyte Inc.). For each reaction/assay, three blanks were prepared by mixing 12 μL of protein solution with 30 nL DMSO. The contents of the wells were carefully mixed by aspiration, and then each plate was sealed with an adhesive cover, centrifuged at 2000 g for 1 minute, and kept in the dark at room temperature until 5 min, 15 min, 30 min, 2 h, or 6 h collections.
(§4) Target pretreatment: Before each assay MALDI target (Bruker MPT 384 ground steel BC) was pre-treated by pipetting on each spot 0.75 μL of saturated sinapinic acid in acetonitrile (ACN).
(§5) Sample preparation: At collection time point, 2 μL of reaction mixtures were pipetted out into 15 μL MALDI matrix solution (saturated solution of sinapinic acid in 1:1 ACN:water solution containing 0.75% trifluoroacetic acid (TFA)) deposited on 384 well polypropylene plate. Resulting solution was mixed by aspiration, centrifuged at 2000 g for 1 minute, then 1.5 μL aliquots were dispensed on pre-treated MALDI target using Beckman Coulter Biomek FXP 96/384-Span-8 Laboratory Automation Workstation. Finally, the MALDI target was dried under mild vacuum to produce spots with fine crystalline structure.
(§6) Measurements: MALDI-TOF measurements were performed on a Bruker Daltonics rapiflex Tissuetyper TOF-TOF mass spectrometer using linear mode and mass range from 18.6 to 21.6 kDa. Detector gain was set to 3.3×(483 V), sample rate to 5 GS/s, real time smoothing to medium (175 MHz), laser smart beam pattern was set to: “MS Thin Layer M5”, and the laser frequency was 10000 Hz. Spectra were automatically collected using custom AutoXecute method. Laser power was auto adjusted using fuzzy control. The peak selection range was set to be between 19000 and 21500 Da. Peak evaluation uses half width parameter set to be smaller than 40 Da for processed spectrograms (centroid peak detection; smoothed by SavitzkyGolay algorithm using 7 m/z width and 2 cycles; baseline was subtracted using median algorithm with flatness 1 and median level 0.01). Fuzzy control used Proteins/Oligonucleotides protocol with minimum half width 1/10 times above threshold. Up to 40000 satisfactory shots were collected in 10000 shot steps. Dynamic termination was implemented to finish data collection when peak signal/noise ratio was reaching value of 50.
(§7) Spectra processing: Spectra were smoothed by SavitzkyGolay algorithm using 7 m/z width and three cycles. Centroid peak detection algorithm was used with signal to noise threshold set to 6, relative intensity threshold 4%, peak width 10 m/z and median baseline subtraction using flatness of 1 and median level of 0.01. Peak intensity and area under the peak were evaluated and recorded for all peaks between 19,300 Da and 21,550 Da.
(§8) Calculation of percent modification: Percent modification was calculated as a ratio of peak height for protein modified by compound to sum of peak height of remaining protein plus peak height for protein modified by compound. If multiple modifications were observed each was calculated as a ratio of peak height for given modification versus sum of peak heights for all observed protein species. Data reported in Table 4 are from 15 minutes reaction time point. […]

[2] = molecular target: T2, GDP-loaded KRAS4b (amino acids 1-169) G12C/C118S protein (Homo sapiens, UniProt P01116, C118S/G12C); assay: Covalent cysteine 12 modification by MALDI-TOF MS, GDP-loaded KRAS G12C; assay type: binding; settings: 15 minutes reaction time point
T2 construct: KRAS4b (amino acids 1-169) G12C/C118S protein; made in house
Procedure: as §1, §2, §3, §4, §5, §6, §7, §8

[3] = tested on: pERK in NCI-H358 cells; assay: Cell-based pERK HTRF assay (pERK inhibition in H358 cells); settings: Homo sapiens, NCI-H358, 0.5 h, 30 min incubation
Procedure: Biological Example 3: Cell-Based pERK HTRF Assay
pERK assays (Perkin Elmer) were used to determine the effectiveness of compounds of the present disclosure in disrupting KRAS G12C protein/effector signaling in cells.
On Day 1, cells (NCI-H358) were seeded into 96-well plates at 4×10^4 cells/well in complete growth media (RPMI, 10% FBS).
On Day 2, cells were treated with compounds at 0.25% DMSO. The source plate was created with compounds diluted in media at 5-fold the final assay concentration. The compounds were run in a 9-point concentration curve starting at 75 μM, with a 3-fold dilution between concentrations. 20 μL was transferred onto the cell plates (final volume in wells was 100 μL). Plates were harvested after 30 min incubation by aspirating media and adding kit-supplied 1× supplemented lysis buffer to all wells (75 μl per well). Plates were then placed on a plate shaker and incubated at 850 rpm for an additional 30 min.
Antibody mixture solution was prepared by diluting aliquoted d2 and Eu Cryptate antibodies 1:20 in kit supplied detection buffer, then mixed the diluted antibodies solutions (1:1 v:v). 4 μL of this solution was then added to a 384-well detection plate (Perkin Elmer; 6008230).
Samples were homogenized by pipetting up and down and then transferred (16 μL of cell lysates) from the 96-well cell culture plate to two wells of the HTRF 384-well detection plate containing the antibody solution. Plates were centrifuged (524 g for […]) and allowed to incubate between 4 and 24 h at room temperature. Maximum signal is reached after 4 h incubation time and remains stable over a period of 24 hours. Therefore, readings can be made between 4 and 24 h of incubation. Plates were centrifuged again (524 g for 1 min), and analyzed on the En Vision plate reader using the following settings: Excitation 320 nm, Bandwidth 75 nm; Emission 615 nm, Bandwidth 85 nm; Gain 100%; Flashes 100; Lag 60 μs.
The percent of modification of GppNHp, GTP, or GDP loaded KRAS G12C by MALDI-TOF MS, biochemical Raf1 RBD-KRAS G12C-GppNHp disruption assay IC50, and pERK inhibition IC50 of selected compounds described herein are shown in Table 4. For percent of modification at 15 minutes (MALDI-TOF MS) of GppNHp, GTP, or GDP loaded KRAS G12C: A: percent of modification ≥70%; B: 50≤percent of modification <70%; C: 10%≤percent of modification <50%; D: percent of modification <10%. […] For pERK inhibition in H358 cell assay: A: IC50≤0.1 μM; B: 0.1 μM<IC50≤1 μM; C: IC50>1 μM. Blanks in the table represent that compound was not tested in the indicated assay.

[4] = molecular target: T3, GTP-loaded KRAS4b (amino acids 1-169) G12C/C118S protein (Homo sapiens, UniProt P01116, C118S/G12C); assay: Covalent cysteine 12 modification by MALDI-TOF MS, GTP-loaded KRAS G12C; assay type: binding; settings: 15 minutes reaction time point
T3 construct: KRAS4b (amino acids 1-169) G12C/C118S protein; made in house
Procedure: as §1, §2, §3, §4, §5, §6, §7, §8

Row | Structure (SMILES) | GppNHp-KRAS G12C percent of modification [1] | GDP-KRAS G12C percent of modification [2] | pIC50 [3] | GTP-KRAS G12C percent of modification [4]
1 | C[C@@H]1CN(c2nc(OC[C@@]34CCCN3C[C@H](F)C4)nc3c(F)c(-c4ccc(F)c5sc(N)c(C#N)c45)c(Cl)cc23)[C@@H](C)CN1C(=O)/C=C/c1nc(C(C)(F)F)no1 [Compound 191] | B (50≤percent of modification <70%) | B (50≤percent of modification <70%) | 6.00 to 7.00 | B (50≤percent of modification <70%)
2 | C=CC(=O)N1CC[C@@H](N(C)c2nc(O[C@@H](C)[C@@H]3C(=C)CCN3C)nc3c(F)c(-c4ccc(F)c5sc(N)c(C#N)c45)c(Cl)cc23)[C@H]1C [Compound 200] | A (percent of modification ≥70%) | C (10%≤percent of modification <50%) | > 7.00 | B (50≤percent of modification <70%)
3 | C=CC(=O)N1CC[C@@H](N(C)c2nc(O[C@@H](C)[C@@H]3C(=C(F)F)CCN3C)nc3c(F)c(-c4ccc(F)c5sc(N)c(C#N)c45)c(Cl)cc23)[C@H]1C [Compound 201] | B (50≤percent of modification <70%) | B (50≤percent of modification <70%) | 6.00 to 7.00 | C (10%≤percent of modification <50%)
4 | C=CC(=O)N1CC[C@@H](N(C)c2nc(OC[C@@H]3CC(=C(F)F)CN3C)nc3c(F)c(-c4ccc(F)c5sc(N)c(C#N)c45)c(Cl)cc23)[C@H]1C [Compound 202] | B (50≤percent of modification <70%) | B (50≤percent of modification <70%) | 6.00 to 7.00 | C (10%≤percent of modification <50%)
5 | C=CC(=O)N1CC[C@@H](N(C)c2nc(O[C@@H](C)[C@@H]3C(=C)CCN3C)nc3c(F)c(-c4ccc(F)c5sc(N)c(C#N)c45)c(C(F)(F)F)cc23)[C@H]1C [Compound 203] | A (percent of modification ≥70%) | A (percent of modification ≥70%) | > 7.00 | A (percent of modification ≥70%)
6 | C=CC(=O)N1CC[C@@H](N(C)c2nc(O[C@@H](C)[C@@H]3CC(=C(F)F)CN3C)nc3c(F)c(-c4ccc(F)c5sc(N)c(C#N)c45)c(C(F)(F)F)cc23)[C@H]1C [Compound 204] | C (10%≤percent of modification <50%) | C (10%≤percent of modification <50%) | 6.00 to 7.00 | C (10%≤percent of modification <50%)

Other lines, results leading:

Row | GppNHp-KRAS G12C percent of modification [1] | GDP-KRAS G12C percent of modification [2] | pIC50 [3] | GTP-KRAS G12C percent of modification [4] | Structure (SMILES)
7 | A (percent of modification ≥70%) | A (percent of modification ≥70%) | > 7.00 | A (percent of modification ≥70%) | C=CC(=O)N1CC[C@@H](N(C)c2nc(O[C@@H](C)[C@@H]3[C@@H](OC)CCN3C)nc3c(F)c(-c4ccc(F)c5sc(N)c(C#N)c45)c(C(F)(F)F)cc23)[C@H]1C [Compound 193]
8 | A (percent of modification ≥70%) | A (percent of modification ≥70%) | > 7.00 | A (percent of modification ≥70%) | C=CC(=O)N1CC[C@@H](N(C)c2nc(O[C@@H](C)[C@@H]3C[C@@H](OC)CN3C)nc3c(F)c(-c4ccc(F)c5sc(N)c(C#N)c45)c(Cl)cc23)[C@H]1C [Compound 194]
9 | A (percent of modification ≥70%) | A (percent of modification ≥70%) | > 7.00 | A (percent of modification ≥70%) | C=CC(=O)N1CC[C@@H](N(C)c2nc(O[C@@H](C)[C@@H]3[C@@H](OC)CCN3C)nc3c(F)c(-c4ccc(F)c5sc(N)c(C#N)c45)c(Cl)cc23)[C@H]1C [Compound 195]
10 | A (percent of modification ≥70%) | A (percent of modification ≥70%) | > 7.00 | A (percent of modification ≥70%) | C=CC(=O)N1CC[C@@H](N(C)c2nc(OC[C@@H]3[C@@H](OC)CCN3C)nc3c(F)c(-c4ccc(F)c5sc(N)c(C#N)c45)c(Cl)cc23)[C@H]1C [Compound 196]
11 | A (percent of modification ≥70%) | A (percent of modification ≥70%) | > 7.00 | A (percent of modification ≥70%) | C=CC(=O)N1CC[C@@H](N(C)c2nc(OC[C@@H]3[C@@H](OC)CCN3C)nc3c(F)c(-c4ccc(F)c5sc(N)c(C#N)c45)c(C(F)(F)F)cc23)[C@H]1C [Compound 197]
12 | B (50≤percent of modification <70%) | B (50≤percent of modification <70%) | > 7.00 | B (50≤percent of modification <70%) | C=CC(=O)N1CC[C@@H](N(C)c2nc(OC[C@@H]3C(=C(F)F)CCN3C)nc3c(F)c(-c4ccc(F)c5sc(N)c(C#N)c45)c(Cl)cc23)[C@H]1C [Compound 198]
13 | C (10%≤percent of modification <50%) | C (10%≤percent of modification <50%) | > 7.00 | C (10%≤percent of modification <50%) | C=CC(=O)N1CC[C@@H](N(C)c2nc(OC[C@@H]3C(=C(F)F)CCN3C)nc3c(F)c(-c4ccc(F)c5sc(N)c(C#N)c45)c(C(F)(F)F)cc23)[C@H]1C [Compound 199]
